Measurements taken from patent US8414989B2, “Cyclodextrin compositions, articles, and methods” (Cellresin Technologies, LLC, priority 2011, dated 2013).

Tests used:
[1] = Example 1: 1-MCP headspace release from UV-cured isobornyl acrylate coating with 1-MCP/c/α-CD on PET film (GC-FID); assay type: physicochemical; details: 1 cm x 1 cm cured coated square, 250 mL bottle
Experimental: A cyclodextrin inclusion complex is formed from α-cyclodextrin and 1-methyl cyclopropene (1-MCP) using the technique described by Neoh, T. L. et al., J. Agric. Food Chem. 2007, 55, 11020-11026 “Kinetics of Molecular Encapsulation of 1-Methylcyclopropene into α-Cyclodextrin.” The inclusion complex is termed “1-MCP/c/α-CD.” A 500 mL bottle is charged with 97.0 g of isobornyl acrylate, 1.0 g of hexanediol diacrylate, 1.0 g of 1-MCP/c/α-CD, and 1.0 g of […] (IRGACURE® 184, obtained from Ciba Specialty Chemicals Corp. of Tarrytown, N.Y.). The bottle is firmly capped and the components are mixed by shaking the bottle briefly by hand.
About 2 mL of the mixture is removed with a metered dropper and dispensed on an 8.5 inch by 11 inch PET film and drawn down using a metering rod (Mayer rod) having a delivered coating thickness of 25 microns. Then the coated PET film is placed on a flat surface approximately 5 cm beneath a medium pressure mercury arc lamp operating at 200 watts per inch (79 watts per cm). After 30 seconds under the lamp, the film is removed. A silicone coated PET sheet (about 50 microns thick) is placed over the cured coating and allowed to sit on a laboratory bench overnight.
A die cutter is used to cut a 1 cm by 1 cm square of the coated portion of the sheet. […] Headspace concentrations of 1-MCP are measured after 1 hour following introduction of the coated square into bottle. The 1-MCP headspace concentration is quantified using gas chromatography by removing 1 mL of gas from the sample bottle using a gas sampling valve interfaced directly to a GC column having FID detector.
Then 50 μl of deionized water is injected into the jar. […] The sealed jar is allowed to sit on the lab bench for one hour after the injection of water, then a second headspace sample is analyzed. A final headspace sample is analyzed 24 hours after the injection of water. At 1 hour after injection of the water, 0.5 ppm of 1-MCP is measured in the headspace. After 24 hours, 0.5 ppm of 1-MCP is measured in the headspace.

[2] = Example 8: 1-MCP headspace release from cured coating with varying amounts of liquid water; assay type: physicochemical; details: 4.0 wt-% 1-MCP/c/α-CD coating, 5 cm x 10 cm, 250 mL bottle
Source text: A 4.0 wt-% 1-MCP/c/α-CD coating blend was made according to the technique of Example 3. A 20 cm by 20 cm polyethylene extrusion coated paper sheet was coated with the mixture using the technique of Example 2. A paper cutter was used to cut nine, 5 cm by 10 cm rectangles from the sheet. The cut, coated rectangles were passed by hand about 10 cm beneath a medium pressure mercury arc lamp operating at 79 watts per cm. After 1.5 seconds exposure to the lamp, the sample was removed. The cured sample was allowed to sit on a laboratory bench overnight coating side down.
Each cured sample was placed in a 250 mL serum bottle. Each bottle was sealed with a TEFLON® faced silicone septum. The amount of liquid water that would, in vapor form, correspond to 100% relative humidity (RH) at 20° C. (provided at http://hyperphysics.phy-astr.gsu.edu/hbase/kinetic/vappre.html#c) is 17.3 g/m^3, or 17.3 g per 1000 L. The density of water at 20° C. is 0.9982 g/mL. Thus, at 20° C., 4.3 μL, of liquid water added to an enclosed volume of 250 mL and containing no other water will vaporize to give 100% RH. Our laboratory facility temperature was 20° C.±5° C.
Three of the bottles were injected with 10 μL, of deionized water, three with 20 μL of deionized water, and three with 50 μL of deionized water. […] The headspace of each bottle was analyzed for 1-MCP at 2 hours, 4 hours, 8 hours, 24 hours, and 48 hours after the injection of water, wherein the headspace analysis was conducted using the analytical technique employed in Example 3.

CC1=CC1 [1-MCP, 1-methylcyclopropene]
Headspace concentration of 1-MCP ([1]; 1 hour after injection of 50 μl water): 0.5 ppm
Headspace concentration of 1-MCP ([1]; 24 hours after injection of 50 μl water): 0.5 ppm
Headspace concentration of 1-MCP ([1]; no water added, 1 hour): No measurable concentration
Headspace concentration of 1-MCP, average ([2]; 10 μL H2O, 2 hr): 1.3 ppm (v/v)
Headspace concentration of 1-MCP, average ([2]; 10 μL H2O, 4 hr): 2.5 ppm (v/v)
Headspace concentration of 1-MCP, average ([2]; 10 μL H2O, 8 hr): 3.8 ppm (v/v)
Headspace concentration of 1-MCP, average ([2]; 10 μL H2O, 24 hr): 7.1 ppm (v/v)
Headspace concentration of 1-MCP, average ([2]; 10 μL H2O, 48 hr): 10.0 ppm (v/v)
Headspace concentration of 1-MCP, average ([2]; 20 μL H2O, 2 hr): 2.6 ppm (v/v)
Headspace concentration of 1-MCP, average ([2]; 20 μL H2O, 4 hr): 5.8 ppm (v/v)
Headspace concentration of 1-MCP, average ([2]; 20 μL H2O, 8 hr): 9.2 ppm (v/v)
Headspace concentration of 1-MCP, average ([2]; 20 μL H2O, 24 hr): 15.7 ppm (v/v)
Headspace concentration of 1-MCP, average ([2]; 20 μL H2O, 48 hr): 20.5 ppm (v/v)
Headspace concentration of 1-MCP, average ([2]; 50 μL H2O, 2 hr): 8.7 ppm (v/v)
Headspace concentration of 1-MCP, average ([2]; 50 μL H2O, 4 hr): 18.6 ppm (v/v)
Headspace concentration of 1-MCP, average ([2]; 50 μL H2O, 8 hr): 30.8 ppm (v/v)
Headspace concentration of 1-MCP, average ([2]; 50 μL H2O, 24 hr): 55.3 ppm (v/v)
Headspace concentration of 1-MCP, average ([2]; 50 μL H2O, 48 hr): 63.0 ppm (v/v)
